Measured values taken from the NIST ThermoML archive (doi:10.1016/j.jct.2008.09.008).

Experiment: wn = mass fraction of the nth substance listed
Settings: 101 kPa, Liquid; for viscosity: Capillary tube (Ostwald / Ubbelohde) method; for speed of sound: Linear variable-path acoustic interferometer; for mass density: Pycnometric method

OCCCCO [1,4-butanediol] + O
Settings	mass density, w1 = 0.2 [kg/m3]	mass density, w1 = 0.4 [kg/m3]	speed of sound, w1 = 0.2 [m/s]	speed of sound, w1 = 0.4 [m/s]	viscosity, w1 = 0.2 [mPa·s]	viscosity, w1 = 0.4 [mPa·s]
298.15 K	1004.93	1013.41	1605.3	1684.2	3.421	6.454
303.15 K	1002.93	1010.75	1606.6	1677.4	2.966	5.738
308.15 K	1000.79	1008.04	1607.8	1670.7	2.542	4.993
313.15 K	998.53	1005.28	1608.5	1664	2.142	4.221
318.15 K	996.15	1002.46	1609.3	1657.2	1.774	3.421
